For assay [1], the target named is T1, Streptomyces chromofuscus phospholipase D (ScPld) (Streptomyces chromofuscus, UniProt Q8KRU5).
T1 sequence (Q8KRU5 47-556): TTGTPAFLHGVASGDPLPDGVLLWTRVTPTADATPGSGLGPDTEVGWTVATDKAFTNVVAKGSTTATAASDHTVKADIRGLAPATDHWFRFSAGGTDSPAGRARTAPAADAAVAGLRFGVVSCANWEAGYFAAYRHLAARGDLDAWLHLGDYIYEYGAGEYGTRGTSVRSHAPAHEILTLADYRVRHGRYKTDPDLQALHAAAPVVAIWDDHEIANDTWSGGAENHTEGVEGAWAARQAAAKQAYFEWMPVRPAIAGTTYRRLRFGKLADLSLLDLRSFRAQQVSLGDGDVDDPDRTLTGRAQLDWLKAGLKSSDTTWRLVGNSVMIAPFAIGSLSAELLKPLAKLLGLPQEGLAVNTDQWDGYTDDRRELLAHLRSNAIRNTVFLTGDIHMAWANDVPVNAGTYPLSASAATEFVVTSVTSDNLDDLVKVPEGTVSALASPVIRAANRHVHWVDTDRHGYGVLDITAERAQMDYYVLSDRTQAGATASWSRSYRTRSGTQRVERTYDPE
Kind of assay: PED-A1 hydrolysis, fluorescence. It counts as biochemical.

In assay [2] the target is NAPE-PLD (endogenous, HEK293 cells) (Homo sapiens, UniProt Q6IQ20). Put plainly: PED-A1 hydrolysis in intact HEK293 cells, fluorescence. It counts as cell-based. As to conditions: 30 min preincubation, 3.5 μM PED-A1.
For assay [3], the target named is T2, recombinant mouse Nape-pld (Mus musculus, UniProt Q8BH82).
T2 sequence (Q8BH82 1-396): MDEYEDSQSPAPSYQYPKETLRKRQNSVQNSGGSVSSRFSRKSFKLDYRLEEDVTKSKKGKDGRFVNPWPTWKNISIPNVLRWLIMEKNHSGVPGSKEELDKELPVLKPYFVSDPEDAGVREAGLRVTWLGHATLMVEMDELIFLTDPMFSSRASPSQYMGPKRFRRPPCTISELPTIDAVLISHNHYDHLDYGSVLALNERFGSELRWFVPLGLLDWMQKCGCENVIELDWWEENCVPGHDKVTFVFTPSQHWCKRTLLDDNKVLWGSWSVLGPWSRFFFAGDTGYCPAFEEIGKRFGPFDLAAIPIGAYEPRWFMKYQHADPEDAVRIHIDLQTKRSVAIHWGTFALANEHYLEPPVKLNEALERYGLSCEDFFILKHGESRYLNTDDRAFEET
Put plainly: biochemical.

The target of assay [4] is T2, recombinant mouse Nape-pld. Put plainly: PED-A1 hydrolysis, fluorescence, initial rate. It counts as biochemical.
For assay [5], the target named is T2, recombinant mouse Nape-pld. Kind of assay: PED-A1 hydrolysis kinetics, fluorescence. It counts as biochemical.
Assay [6] concerns the target T2, recombinant mouse Nape-pld. Put plainly: biochemical. This is another data set of the same source.
The target of assay [7] is T2, recombinant mouse Nape-pld. Kind of assay: biochemical. This is another data set of the same source.

Among the data in article doi:10.1101/2020.03.05.979567v1 (biorxiv, 2020) are IC50 and Ki values, retold here.

Sequence of NAPE-PLD (endogenous, HEK293 cells) (Q6IQ20 whole entry): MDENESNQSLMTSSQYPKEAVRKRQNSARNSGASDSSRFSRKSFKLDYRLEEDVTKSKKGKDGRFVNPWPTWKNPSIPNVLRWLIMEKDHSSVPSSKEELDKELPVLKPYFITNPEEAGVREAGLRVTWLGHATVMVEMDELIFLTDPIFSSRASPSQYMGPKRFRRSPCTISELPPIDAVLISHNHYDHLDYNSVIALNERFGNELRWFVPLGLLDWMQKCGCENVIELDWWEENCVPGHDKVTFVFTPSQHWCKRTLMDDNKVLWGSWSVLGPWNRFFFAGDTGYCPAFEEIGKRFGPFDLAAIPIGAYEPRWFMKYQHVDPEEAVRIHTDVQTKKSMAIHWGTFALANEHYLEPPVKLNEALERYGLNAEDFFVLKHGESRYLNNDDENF

For `Oc1c(Cl)cc(Cl)cc1Sc1cc(Cl)cc(Cl)c1O` [Inh 2, bithionol], the values for the 50% inhibitory concentration (IC50) in assay [1], in assay [2] and in assay [3] were above 200 µM, 10.7 µM and 2.1 µM, respectively.

As to `Oc1c(Cl)cc(Cl)c(Cl)c1Cc1c(O)c(Cl)cc(Cl)c1Cl` [Inh 1, hexachlorophene], the half-inhibitory concentration (IC50) in assay [1] is 149 µM; in assay [4], around 2 µM; in assay [2] it was 9.8 µM; in assay [3], 1.6 µM. Further, in assay [5], the inhibition constant Ki is around 2000 nM.

`CC(C)=CCC[C@]1(C)C=Cc2c(O)c3c(c(CC=C(C)C)c2O1)O[C@]12C(=C[C@@H]4C[C@H]1C(C)(C)O[C@@]2(C/C=C(/C)C(=O)O)C4=O)C3=O` [Inh 9, Gambogic acid]: the IC50 in assay [3] was 9.9 µM. Regarding `Oc1ccc(Cl)cc1Cc1cc(Cl)ccc1O` [Inh 17, Dichlorophen], the half-maximal inhibitory concentration (IC50) in assay [4] was determined as 23.2 µM. In the case of `O=C(Nc1ccc(Cl)cc1)Nc1ccc(Cl)c(Cl)c1` [Inh 26, triclocarban], the IC50 in assay [6] is above 200 µM. Turning to `CC1=C(O)C(=O)C=C2C1=CC=C1[C@@]2(C)CC[C@@]2(C)[C@@H]3C[C@](C)(C(=O)O)CC[C@]3(C)CC[C@]12C` [Inh 5, Tripterine], in assay [3], the IC50 came out at 3 µM. Consider `[H]/N=C(\N/C(=N/[H])NCCCCCCNC(=N)NC(=N)Nc1ccc(Cl)cc1)Nc1ccc(Cl)cc1` [Inh 10, Chlorhexidine], for which the IC50 in assay [3] came out at 10.4 µM. Regarding `CC(C)(c1cc(Cl)c(O)c(Cl)c1)c1cc(Cl)c(O)c(Cl)c1` [Inh 24, CAS 79-95-8], the half-inhibitory concentration (IC50) in assay [4] came out at 64.7 µM. Still for that read-out and setting: the figure for `Oc1ccc(Cl)cc1Sc1cc(Cl)ccc1O` [Inh 18, Fenticlor] is 26.8 µM. On the same count and under the same terms, the value for `Oc1c(Cl)cc(Cl)cc1Cc1cc(Cl)cc(Cl)c1O` [Inh 21, CAS 1940-43-8] was 26.5 µM. With `Cc1cc2c(C(C)C)c(O)c(O)c(C=O)c2c(O)c1-c1c(C)cc2c(C(C)C)c(O)c(O)c(C=O)c2c1O` [Inh 6, Gossypol], the IC50 in assay [3] was 6.9 µM. Regarding `CCCCC(=O)O[C@H]1CC[C@H]2[C@@H]3CCc4cc(O)ccc4[C@H]3CC[C@]12C` [Inh 7, estradiol valerate], the concentration for half-maximal inhibition (IC50) in assay [4] was 7.8 µM. On to `COc1ccc(C(=O)c2ccccc2O)c(O)c1` [Inh 14, dioxybenzone], for which the IC50 in assay [3] came out at 19.1 µM. With `Clc1cc(Cl)c(Cl)c(Cc2cc(Cl)cc(Cl)c2Cl)c1` [Inh 15, CAS 2888-15-5], the IC50 in assay [7] was above 200 µM. On the same count and under the same terms, the value for `COc1ccc(Cl)cc1Cc1cc(Cl)ccc1OC` [Inh 19, CAS 7569-57-5] was above 200 µM. In the case of `O=c1c2ccccc2[se]n1-c1ccccc1` [Inh 4, ebselen], the IC50 in assay [3] amounted to 2.8 µM. For the compound `Oc1c(Br)cc(Cl)cc1Cc1cc(Cl)cc(Br)c1O` [Inh 22, CAS 15435-29-7], the IC50 in assay [4] amounted to 5 µM. The same measure, in the same setting: the value for `Oc1cc(Cl)ccc1Oc1ccc(Cl)cc1Cl` [Inh 25, triclosan] was 62.9 µM. Take `COc1c(O)cc2oc3cc(O)c(CC=C(C)C)c(O)c3c(=O)c2c1CC=C(C)C` [Inh 3, Mangostin]: the IC50 in assay [3] amounted to 2.8 µM. As for `Oc1c(Cl)cc(Cl)cc1C(c1cc(Cl)cc(Cl)c1O)C(Cl)(Cl)Cl` [Inh 23, CAS 92167-59-4], in assay [4], the half-maximal inhibitory concentration (IC50) turned out to be 2.8 µM.

As a reminder, the IC50 is the concentration that inhibits the measured activity by half. By Ki is commonly meant a measure of affinity in units of concentration, obtained from inhibition or displacement.
